According to paper PMC8674134, “Safety and efficacy of avapritinib in advanced systemic mastocytosis: the phase 1 EXPLORER trial” (Nature Medicine, 2021):

Tested on: advanced systemic mastocytosis (AdvSM)
Assay: Centrally adjudicated response by mIWG-MRT-ECNM criteria (ORR, best response, time to response, C-finding improvement)
Assay type: in vivo, human
Source text: The primary endpoints were MTD, RP2D and assessment of safety. Secondary endpoints included the ORR based on measurable C-finding responses per mIWG-MRT-ECNM criteria, which require 12-week confirmation of response. Responses in C-findings were centrally adjudicated by a Response Adjudication Committee (RAC) comprising a subset of study investigators (see below for further details and a list of RAC members). ORR included: CR or CRh (including complete resolution of all C-findings, elimination of marrow mast cell aggregates and serum tryptase <20 ng ml^−1); PR (resolution of ≥1 C-finding and ≥50% reduction in marrow mast cells and serum tryptase); and clinical improvement (resolution of ≥1 C-finding).
The safety population included all enrolled patients and was used to report AEs and PROs (in those who completed the questionnaire). The dose-determining population included all patients in a cohort in part 1 who received ≥21 prescribed avapritinib doses in C1 and completed follow-up through C1, or experienced DLT. The determination of the MTD and RP2D were based on the dose-determining population. […] The AdvSM safety population was also used to report AEs and OS. […] The response-evaluable population was used to report adjudicated response rates and PFS. The PK population comprised all patients with sufficient plasma concentration–time data to reliably estimate the PK parameters of avapritinib.
ORR was defined as the proportion of patients with a confirmed best response of CR, CRh, PR or clinical improvement by mIWG-MRT-ECNM consensus criteria. Time to CR/CRh/PR was defined as the time from the start of treatment to the time a CR/CRh/PR by mIWG-MRT-ECNM was first met. DOR was defined as the time from first documented response to the date of first documented progressive disease/loss of response or death due to any cause, whichever occurred first. OS was defined as the time from the start of treatment to the date of death. PFS was defined as the time from the start of treatment to the date of first documented progressive disease or death due to any cause, whichever occurred first. Progressive disease was defined per mIWG-MRT-ECNM criteria as worsening of ≥1 baseline C-finding confirmed for at least 4 weeks, or progression to acute myeloid leukemia.
Primary ORR analysis was based on RAC-adjudicated responses in the response-evaluable population. ORR was estimated using frequency, percentage and two-sided 95% CIs based on the exact binomial distribution (Clopper–Pearson). Statistical testing on binomial proportion against a null of 28% was performed using one-sided α = 0.025. Wald test P value was presented. CR + CRh + PR rate was summarized similarly as ORR. Statistical testing on binomial proportion against a null of 17% was performed using one-sided α = 0.025.

[1] = 53 response-evaluable patients, mIWG-MRT-ECNM
[2] = Prior midostaurin exposure (n = 17)
[3] = of 2 patients with C-finding at baseline, response-evaluable population (n = 53)
[4] = of 18 patients with C-finding at baseline, response-evaluable population (n = 53)
[5] = response-evaluable population (n = 53)

In the case of Cn1cc(-c2cc3c(N4CCN(c5ncc([C@@](C)(N)c6ccc(F)cc6)cn5)CC4)ncnn3c2)cn1 [avapritinib], the Clinical improvement rate (53 response-evaluable patients) is reported as 6%, the “Partial remission (PR) rate” value (53 response-evaluable patients) is reported as 34% and the “CR or CRh rate” value [1] is reported as 36%. For the same compound, the “Overall response rate (ORR; CR/CRh/PR/CI)” value [1] was 75%, the “Best response CI (clinical improvement)” value (ASM (n = 3)) was 0 n (%) and the “Best response CR” value (ASM (n = 3)) was 0 n (%). For the same compound, the “Best response CR or CRh” value (ASM (n = 3)) was 2 (67) n (%), the “Best response CRh” value (ASM (n = 3)) was 2 (67) n (%) and the “Best response NE (not evaluable)” value (ASM (n = 3)) was 0 n (%). The “Best response PD” value (ASM (n = 3)) was 0 n (%), the “Best response PR” value (ASM (n = 3)) was 1 (33) n (%) and the “Best response SD” value (ASM (n = 3)) was 0 n (%). The “ORR (CR + CRh + PR + CI)” value (ASM (n = 3)) was 3 (100) n (%), the “Best response CI (clinical improvement)” value (All AdvSM (n = 53)) was 3 (6) n (%) and the “Best response CR” value (All AdvSM (n = 53)) was 8 (15) n (%). For the same compound, the “Best response CR or CRh” value (All AdvSM (n = 53)) was 19 (36) n (%), the “Best response CRh” value (All AdvSM (n = 53)) was 11 (21) n (%) and the “Best response NE (not evaluable)” value (All AdvSM (n = 53)) was 1 (2) n (%). The “Best response PD” value (All AdvSM (n = 53)) was 0 n (%), the “Best response PR” value (All AdvSM (n = 53)) was 18 (34) n (%) and the “Best response SD” value (All AdvSM (n = 53)) was 12 (23) n (%). The “ORR (CR + CRh + PR + CI)” value (All AdvSM (n = 53)) was 40 (75) n (%), the “Best response CI (clinical improvement)” value (Any prior therapy (n = 32)) was 2 (6) n (%) and the “Best response CR” value (Any prior therapy (n = 32)) was 4 (13) n (%). For the same compound, the “Best response CR or CRh” value (Any prior therapy (n = 32)) was 9 (28) n (%), the “Best response CRh” value (Any prior therapy (n = 32)) was 5 (16) n (%) and the “Best response NE (not evaluable)” value (Any prior therapy (n = 32)) was 1 (3) n (%). The “Best response PD” value (Any prior therapy (n = 32)) was 0 n (%), the “Best response PR” value (Any prior therapy (n = 32)) was 11 (34) n (%) and the “Best response SD” value (Any prior therapy (n = 32)) was 9 (28) n (%). The “ORR (CR + CRh + PR + CI)” value (Any prior therapy (n = 32)) was 22 (69) n (%), the “Best response CI (clinical improvement)” value (MCL (n = 13)) was 2 (15) n (%) and the “Best response CR” value (MCL (n = 13)) was 3 (23) n (%). For the same compound, the “Best response CR or CRh” value (MCL (n = 13)) was 3 (23) n (%), the “Best response CRh” value (MCL (n = 13)) was 0 n (%) and the “Best response NE (not evaluable)” value (MCL (n = 13)) was 0 n (%). For the same compound, the “Best response PD” value (MCL (n = 13)) was 0 n (%), the “Best response PR” value (MCL (n = 13)) was 4 (31) n (%) and the “Best response SD” value (MCL (n = 13)) was 4 (31) n (%). The “ORR (CR + CRh + PR + CI)” value (MCL (n = 13)) was 9 (69) n (%), the “Best response CI (clinical improvement)” value (Midostaurin naïve (n = 36)) was 2 (6) n (%) and the “Best response CR” value (Midostaurin naïve (n = 36)) was 6 (17) n (%). The “Best response CR or CRh” value (Midostaurin naïve (n = 36)) was 16 (44) n (%), the “Best response CRh” value (Midostaurin naïve (n = 36)) was 10 (28) n (%) and the “Best response NE (not evaluable)” value (Midostaurin naïve (n = 36)) was 0 n (%). For the same compound, the “Best response PD” value (Midostaurin naïve (n = 36)) was 0 n (%), the “Best response PR” value (Midostaurin naïve (n = 36)) was 12 (33) n (%) and the “Best response SD” value (Midostaurin naïve (n = 36)) was 6 (17) n (%). For the same compound, the “ORR (CR + CRh + PR + CI)” value (Midostaurin naïve (n = 36)) was 30 (83) n (%), the “Best response CI (clinical improvement)” value (No prior therapy (n = 21)) was 1 (5) n (%) and the “Best response CR” value (No prior therapy (n = 21)) was 4 (19) n (%). The “Best response CR or CRh” value (No prior therapy (n = 21)) was 10 (48) n (%), the “Best response CRh” value (No prior therapy (n = 21)) was 6 (29) n (%) and the “Best response NE (not evaluable)” value (No prior therapy (n = 21)) was 0 n (%). The “Best response PD” value (No prior therapy (n = 21)) was 0 n (%), the “Best response PR” value (No prior therapy (n = 21)) was 7 (33) n (%) and the “Best response SD” value (No prior therapy (n = 21)) was 3 (14) n (%). The “ORR (CR + CRh + PR + CI)” value (No prior therapy (n = 21)) was 18 (86) n (%), the “Best response CI (clinical improvement)” value [2] was 1 (6) n (%) and the “Best response CR” value [2] was 2 (12) n (%). The “Best response CR or CRh” value [2] was 3 (18) n (%), the “Best response CRh” value [2] was 1 (6) n (%) and the “Best response NE (not evaluable)” value [2] was 1 (6) n (%). The “Best response PD” value [2] was 0 n (%), the “Best response PR” value [2] was 6 (35) n (%) and the “Best response SD” value [2] was 6 (35) n (%). The “ORR (CR + CRh + PR + CI)” value [2] was 10 (59) n (%), the “Best response CI (clinical improvement)” value (SM-AHN (n = 37)) was 1 (3) n (%) and the “Best response CR” value (SM-AHN (n = 37)) was 5 (14) n (%). For the same compound, the “Best response CR or CRh” value (SM-AHN (n = 37)) was 14 (38) n (%), the “Best response CRh” value (SM-AHN (n = 37)) was 9 (24) n (%) and the “Best response NE (not evaluable)” value (SM-AHN (n = 37)) was 1 (3) n (%). The “Best response PD” value (SM-AHN (n = 37)) was 0 n (%), the “Best response PR” value (SM-AHN (n = 37)) was 13 (35) n (%) and the “Best response SD” value (SM-AHN (n = 37)) was 8 (22) n (%). The “ORR (CR + CRh + PR + CI)” value (SM-AHN (n = 37)) was 28 (76) n (%), the “Median time to achieve CR/CRh” value (all starting doses) was 9 months and the “Median time to achieve PR or better (CR/CRh/PR)” value (all starting doses, range, 2–27 months) was 2 months. The CR rate (midostaurin-naïve patients (6/36)) was 17%, the CRh rate (midostaurin-naïve patients (10/36)) was 28% and the CR/CRh rate (midostaurin-naïve patients (16/36)) was 44%. For the same compound, the ORR (midostaurin-naïve patients (30/36)) was 83%, the “Patients with clinical improvement in C-finding: thrombocytopenia, transfusion dependent” value (of 1 patient with C-finding at baseline, response-evaluable population (n = 53)) was 0 (0) n (%) and the “Patients with clinical improvement in C-finding: anemia, transfusion dependent” value [3] was 1 (50) n (%). The “Patients with clinical improvement in C-finding: pleural effusions” value [3] was 2 (100) n (%), the “Patients with clinical improvement in C-finding: neutropenia” value (of 3 patients with C-finding at baseline, response-evaluable population (n = 53)) was 0 (0) n (%) and the “Patients with clinical improvement in C-finding: direct bilirubin >1.5 × ULN” value (of 6 patients with C-finding at baseline, response-evaluable population (n = 53)) was 1 (17) n (%). The “Patients with clinical improvement in C-finding: hypoalbuminemia” value (of 7 patients with C-finding at baseline, response-evaluable population (n = 53)) was 4 (57) n (%), the “Patients with clinical improvement in C-finding: ascites” value (of 10 patients with C-finding at baseline, response-evaluable population (n = 53)) was 4 (40) n (%) and the “Patients with clinical improvement in C-finding: anemia, transfusion independent” value (of 15 patients with C-finding at baseline, response-evaluable population (n = 53)) was 3 (20) n (%). For the same compound, the “Patients with clinical improvement in C-finding: ALP >2.5 × ULN” value [4] was 12 (67) n (%), the “Patients with clinical improvement in C-finding: thrombocytopenia, transfusion independent” value [4] was 4 (22) n (%) and the “Patients with clinical improvement in C-finding: splenomegaly ≥5 cm” value (of 28 patients with C-finding at baseline, response-evaluable population (n = 53)) was 24 (86) n (%). The ORR (patients with co-mutations in S/A/R genes) was 74%, the ORR (patients with prior midostaurin exposure (10/17)) was 59% and the ORR (patients without S/A/R co-mutations) was 77%. It also gave a CRh rate (prior midostaurin exposure (1/17)) of 6%, a CR rate (prior midostaurin exposure (2/17)) of 12% and a CR/CRh rate (prior midostaurin exposure (3/17)) of 18%. The “Median time to clinical improvement: ALP >2.5 × ULN” value [5] was 2.9 months, the “Median time to clinical improvement: anemia, transfusion dependent” value [5] was 0.3 months and the “Median time to clinical improvement: anemia, transfusion independent” value [5] was 3.7 months. The “Median time to clinical improvement: ascites” value [5] was 7.4 months, the “Median time to clinical improvement: direct bilirubin >1.5 × ULN” value [5] was 8.3 months and the “Median time to clinical improvement: hypoalbuminemia” value [5] was 3.3 months. The “Median time to clinical improvement: pleural effusions” value [5] was 1.9 months, the “Median time to clinical improvement: splenomegaly ≥5 cm” value [5] was 1.9 months and the “Median time to clinical improvement: thrombocytopenia, transfusion independent” value [5] was 3.1 months. The “Median time to PR or better (CR/CRh/PR)” value (starting doses of 200, 300 or 400 mg (≥200 mg QD)) was 2 months.
